Experimental data taken from patent US20060003980A1, “Cobalt(II) complexes as protein tyrosine kinase inhibitors” (priority 2004, published 2006).
“Also recorded” adds a separate entry of the source. Like-named read-outs stand apart in the source and are kept apart here.

Tests used:
Src = Src (Homo sapiens, UniProt P12931); assay: Tyrosine kinase activity of Src using poly E4Y and 32P-ATP; format: biochemical
Method: (§1) Recombinant human Src was expressed using the baculovirus-insect cell system and purified as published (Budde et al., 1993). Recombinant Csk and the FGF receptor (FGFr) were expressed as glutathione-S-transferase fusion proteins using the pGEX expression vector and E. coli, and purified as described (Sun et al., 1995).
(§2) The tyrosine kinase activity of Src, Csk and FGFr was determined using poly E4Y and ^32P-ATP. Briefly, enzymes were assayed in a reaction mixture consisting of 0.15 M EPPS-NaOH (pH 8.0) with 6 mM MgCl2, 0.2 mM γ^32P-ATP (0.2-0.4 mCi/μmol), 10% glycerol, 0.1% Triton X-100, and poly E4Y. Poly E4Y is a synthetic peptide whose phosphorylation is measured in this assay by the addition of the radioactively labeled phosphate from the ATP (Budde et al., 1994). For screening assays, 50 μg/ml poly E4Y was used.

FGF receptor (FGFr) = FGF receptor (FGFr) (Homo sapiens, UniProt P11362); assay: Tyrosine kinase activity of FGFr using poly E4Y and 32P-ATP; format: biochemical
Method: Recombinant human Src was expressed using the baculovirus-insect cell system and purified as published (Budde et al., 1993). Recombinant Csk and the FGF receptor (FGFr) were expressed as glutathione-S-transferase fusion proteins using the pGEX expression vector and E. coli, and purified as described (Sun et al., 1995). The tyrosine kinase activity of Src, Csk and FGFr was determined using poly E4Y and ^32P-ATP. […] Poly E4Y is a synthetic peptide whose phosphorylation is measured in this assay by the addition of the radioactively labeled phosphate from the ATP (Budde et al., 1994). For screening assays, 50 μg/ml poly E4Y was used.

Csk = target: T1, Csk (Homo sapiens, UniProt P41240); assay: Tyrosine kinase activity of Csk using poly E4Y and 32P-ATP; format: biochemical
T1 construct: GST (glutathione-S-transferase); made in house; host or cells: E. coli (pGEX vector)
Method: as §1, §2

cell growth = assay: Cell growth inhibition (FIG. 1); format: cell-based
Description: FIG. 1 graphically illustrates that a stable cobalt-tyrosineamide identified as complex no.
This indicates a requirement for both the tyrosine amide moiety and for the metal moiety.

[1] = * = Extrapolated value from the graph

T1 sequence (P41240 whole entry, species assumed): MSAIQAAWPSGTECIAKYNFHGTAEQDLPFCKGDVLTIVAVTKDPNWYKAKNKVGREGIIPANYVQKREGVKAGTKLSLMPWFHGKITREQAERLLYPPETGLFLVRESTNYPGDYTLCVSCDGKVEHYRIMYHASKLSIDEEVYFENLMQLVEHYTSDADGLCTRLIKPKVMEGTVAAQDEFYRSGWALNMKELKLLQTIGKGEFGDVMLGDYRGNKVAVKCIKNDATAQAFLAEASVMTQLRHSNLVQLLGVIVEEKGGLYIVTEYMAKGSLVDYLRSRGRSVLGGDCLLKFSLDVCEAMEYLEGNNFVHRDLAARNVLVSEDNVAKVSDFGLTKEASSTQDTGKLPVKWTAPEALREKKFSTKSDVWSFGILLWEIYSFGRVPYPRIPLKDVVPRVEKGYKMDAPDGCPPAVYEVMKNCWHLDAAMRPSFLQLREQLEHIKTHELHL
FGF receptor (FGFr), sequence (P11362 398-822): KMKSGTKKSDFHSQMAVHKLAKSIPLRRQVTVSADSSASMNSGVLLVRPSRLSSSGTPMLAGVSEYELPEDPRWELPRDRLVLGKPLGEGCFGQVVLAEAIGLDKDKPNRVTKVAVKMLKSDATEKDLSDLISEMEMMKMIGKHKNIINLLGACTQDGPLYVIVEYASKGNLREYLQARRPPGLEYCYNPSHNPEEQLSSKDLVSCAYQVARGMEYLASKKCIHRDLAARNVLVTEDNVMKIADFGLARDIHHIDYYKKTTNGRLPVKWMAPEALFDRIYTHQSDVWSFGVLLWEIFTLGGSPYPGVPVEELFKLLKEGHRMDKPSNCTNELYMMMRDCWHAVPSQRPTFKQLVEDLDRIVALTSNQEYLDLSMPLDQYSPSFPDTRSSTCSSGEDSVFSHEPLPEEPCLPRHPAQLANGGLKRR

Row | Molecule | IC50 (Src) [µM] | IC50 (FGF receptor (FGFr)) [µM] | further results
1 | C[SH]1CCC(N)C(=O)[N](O)[Co]1[OH] (racemic) [Complex 4] | – | – | IC50 (Src; [1]): 176 µM
2 | N[C@@H]1CCCC[C@H]1N.[Cl-].[Cl-].[Co+2] (racemic) [Complex 30] | 79 | – | IC50 (FGF receptor (FGFr); [1]): 123 µM
3 | NC(Cc1ccc(O)cc1)C(=O)NO.[Co+2].[O-][Cl+3]([O-])([O-])[O-].[O-][Cl+3]([O-])([O-])[O-] (centres unmarked) [Complex 1] | – | 14 | –
4 | NCC(=O)NO.[OH][Co][OH] [Complex 5] | – | – | IC50 (Src; [1]): 259 µM
5 | NCCC(=O)NO.[OH][Co][OH] [Complex 8] | 100 | – | IC50 (Csk; [1]): 150 µM
6 | NC(=O)C(N)Cc1c[nH]c2ccccc12.[O-][Cl+3]([O-])([O-])[O][Co][O][Cl+3]([O-])([O-])[O-] (centres unmarked) [Complex 13] | 24 | 54 | IC50 (Csk): 77 µM
7 | NC(=O)C(N)Cc1ccc(O)cc1.[Cl-].[Cl-].[Co+2] (centres unmarked) [Complex 14] | 28 | 20 | –
8 | NC(=O)C(N)Cc1ccc(O)cc1.[OH][Co][Cl] (centres unmarked) [Complex 15] | 46 | – | IC50 (Csk; [1]): 330 µM; IC50 (FGF receptor (FGFr); [1]): 180 µM
9 | CC(=O)[O-].NC(=O)C(N)Cc1ccc(O)cc1.[Co+2].[OH-] (centres unmarked) [Complex 16] | – | – | IC50 (Src; [1]): 285 µM
10 | NCC(N)=O.[Cl-].[Cl][Co][Cl].[Na+] [Complex 17] | 56 | 22 | IC50 (Csk; [1]): 218 µM
11 | CC(C)CC(N)C(N)=O.[Cl-].[Cl-].[Co+2] (centres unmarked) [Complex 18] | – | 38 | IC50 (Src; [1]): 105 µM; IC50 (Csk; [1]): 211 µM
12 | CC(C)CC(N)C(N)=O.[Cl-].[Cl-].[Co+2] (centres unmarked) [Complex 19] | 35 | 45 | –
13 | NC(=O)CCC(N)C(=O)[O][Co][Cl] (centres unmarked) [Complex 20] | 57 | 100 | IC50 (Csk; [1]): 281 µM
14 | NC(=O)CCC(N)C(=O)[O][Co][Cl] (centres unmarked) [Complex 21] | 58 | 93 | IC50 (Csk; [1]): 389 µM
15 | NC(=O)CCC(N)C(N)=O.[Cl][Co][Cl] (centres unmarked) [Complex 22] | 71 | 46 | IC50 (Csk; [1]): 361 µM
16 | NCCN.[Cl-].[Co+2].[OH-] [Complex 24] | – | 24 | IC50 (Src; [1]): 215 µM
17 | Nc1ccccc1N.[Cl-].[Cl-].[Co+2] [Complex 25] | 9 | 14 | IC50 (Csk; [1]): 210 µM

Row | Molecule | IC50 (Src) [µM] | IC50 (FGF receptor (FGFr)) [µM] | further results
18 | NCCNc1cccc2ccccc12.[Cl-].[Cl-].[Co+2] [Complex 26] | 65 | 39 | –
19 | N[C@H](c1ccccc1)[C@@H](N)c1ccccc1.N[C@H](c1ccccc1)[C@@H](N)c1ccccc1.[Cl][Co][Cl].[Cl][Co][Cl] [Complex 27] | 7 | 17 | IC50 (Csk): 59 µM
20 | N[C@H](c1ccccc1)[C@H](N)c1ccccc1.N[C@H](c1ccccc1)[C@H](N)c1ccccc1.[Cl][Co][Cl].[Cl][Co][Cl] [Complex 31] | 55 | 98 | IC50 (Csk): 50 µM
21 | O=C([O-])c1ccccc1O.O=C([O-])c1ccccc1O.[Co+2] [Complex 32] | – | 182 | –
22 | O=C(NO)c1ccccc1O.O=C(NO)c1ccccc1O.[Cl][Co][Cl] [Complex 33] | 6 | 2 | IC50 (Csk): 92 µM
23 | O=C([O][Co][O]C(=O)c1ccccc1S)c1ccccc1S [Complex 34] | – | 125 | –
24 | [Co+2].[O-]c1ccccc1C=NCCN=Cc1ccccc1[O-] [Complex 35, Co[N,N-bis(salicylidene)ethylenediamine]] | 108 | 3 | IC50 (Csk): 92 µM
25 | [Co+2].[O-]c1ccccc1C=Nc1ccccc1N=Cc1ccccc1[O-] [Complex 36, Co[N,N-bis(salicylidene)1,2-phenylenediamine]] | 28 | 1 | IC50 (Csk; [1]): 128 µM
26 | [Cl][Co]([Cl])([PH](c1ccccc1)(c1ccccc1)c1ccccc1)[PH](c1ccccc1)(c1ccccc1)c1ccccc1 [Complex 37] | – | 76 | –
27 | [Cl][Co]1([Cl])[PH](c2ccccc2)(c2ccccc2)CC[PH]1(c1ccccc1)c1ccccc1 [Complex 38] | 66 | – | –
28 | CN1CCCN=Cc2ccccc2[O][Co][O]c2ccccc2C=NCCC1 [Complex 40] | 95 | 41 | –
29 | CC(=O)C=C(C)[O-].CC(=O)C=C(C)[O-].[Co+2] [Complex 41] | – | – | IC50 (Src; [1]): 177 µM; IC50 (FGF receptor (FGFr); [1]): 233 µM
30 | O=C(C=C(O)C(F)(F)F)C(F)(F)F [Complex 42] | 105 | – | –
31 | CC(=O)C=C([O-])c1ccccc1.CC(=O)C=C([O-])c1ccccc1.[Co+2] [Complex 43] | 47 | 83 | –
32 | O=Cc1ccccc1[O-].O=Cc1ccccc1[O-].[Co+2] [Complex 44, Co(salicylaldehyde)2] | 113 | – | IC50 (FGF receptor (FGFr); [1]): 148 µM
33 | NC(=O)[C@@H](N)Cc1ccc(O)cc1 [tyrosine amide] | – | – | cell growth inhibition (cell growth): not inhibitory; also recorded: neither free metal nor the tyrosine amide were inhibitory
34 | Co[N,N-bis(salicylidene)dianiline] [Complex 39] | – | – | IC50 (Src; [1]): 133 µM; IC50 (FGF receptor (FGFr); [1]): 155 µM
